Key:
Assay in all cases: relative viability (nuclei count vs DMSO), 5 days (fraction); higher = more cells survive
Pemetrexed + Tozasertib = compound: Nc1nc2[nH]cc(CCc3ccc(C(=O)N[C@@H](CCC(=O)O)C(=O)O)cc3)c2c(=O)[nH]1 [Pemetrexed] + Cc1cc(Nc2cc(N3CCN(C)CC3)nc(Sc3ccc(NC(=O)C4CC4)cc3)n2)n[nH]1 [Tozasertib] (partner 0.1 µM)
How it was run: (§1)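 Values are medians from duplicate plates. Each reflects relative viability, defined as the nuclei count of treated wells over that of vehicle wells. Lung cancer cell lines in 1536-well plates were pin-tool dosed one day after seeding with one drug alone or with a fixed anchor-drug dose plus five library-drug doses (not always all listed) in √10 steps, then fixed, stained and imaged at 4× after 5 days.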

Pemetrexed + Palbociclib = compound: Nc1nc2[nH]cc(CCc3ccc(C(=O)N[C@@H](CCC(=O)O)C(=O)O)cc3)c2c(=O)[nH]1 [Pemetrexed] + CC(=O)c1c(C)c2cnc(Nc3ccc(N4CCNCC4)cn3)nc2n(C2CCCC2)c1=O [Palbociclib] (partner 0.5 µM)
How it was run: as §1

Pemetrexed + Pictilisib = compound: Nc1nc2[nH]cc(CCc3ccc(C(=O)N[C@@H](CCC(=O)O)C(=O)O)cc3)c2c(=O)[nH]1 [Pemetrexed] + CS(=O)(=O)N1CCN(Cc2cc3nc(-c4cccc5[nH]ncc45)nc(N4CCOCC4)c3s2)CC1 [Pictilisib] (partner 1 µM)
How it was run: as §1

Idelalisib + Crizotinib = compound: CC[C@H](Nc1ncnc2[nH]cnc12)c1nc2cccc(F)c2c(=O)n1-c1ccccc1 [Idelalisib] + C[C@@H](Oc1cc(-c2cnn(C3CCNCC3)c2)cnc1N)c1c(Cl)ccc(F)c1Cl [Crizotinib] (partner 1 µM)
How it was run: as §1

Row | Cell Line | relative viability (Pemetrexed + Tozasertib; first compound 0.002 µM) | relative viability (Pemetrexed + Tozasertib; first compound 0.006325 µM) | relative viability (Pemetrexed + Tozasertib; first compound 0.02 µM) | relative viability (Pemetrexed + Tozasertib; first compound 0.06325 µM) | relative viability (Pemetrexed + Tozasertib; first compound 0.2 µM) | relative viability (Pemetrexed + Palbociclib; first compound 0.002 µM) | relative viability (Pemetrexed + Palbociclib; first compound 0.006325 µM) | relative viability (Pemetrexed + Palbociclib; first compound 0.02 µM) | relative viability (Pemetrexed + Palbociclib; first compound 0.06325 µM) | relative viability (Pemetrexed + Palbociclib; first compound 0.2 µM) | relative viability (Pemetrexed + Pictilisib; first compound 0.002 µM) | relative viability (Pemetrexed + Pictilisib; first compound 0.006325 µM) | relative viability (Pemetrexed + Pictilisib; first compound 0.02 µM) | relative viability (Pemetrexed + Pictilisib; first compound 0.06325 µM) | relative viability (Pemetrexed + Pictilisib; first compound 0.2 µM) | relative viability (Idelalisib + Crizotinib; first compound 0.04 µM) | relative viability (Idelalisib + Crizotinib; first compound 0.1265 µM) | relative viability (Idelalisib + Crizotinib; first compound 0.4 µM) | relative viability (Idelalisib + Crizotinib; first compound 1.265 µM) | relative viability (Idelalisib + Crizotinib; first compound 4 µM)
1 | SW 900 | 0.5 | 0.535 | 0.678 | 0.495 | 0.466 | 0.549 | 0.564 | 0.604 | 0.516 | 0.521 |  |  |  |  |  |  |  |  |  | 
2 | PC-3 [JPC-3] | 0.82 | 0.939 | 0.895 | 0.878 | 0.861 | 0.483 | 0.54 | 0.536 | 0.578 | 0.503 | 0.625 | 0.687 | 0.821 | 0.743 | 0.663 | 1 | 1.04 | 0.94 | 0.98 | 0.881
3 | NCI-H1703 |  |  |  |  |  |  |  |  |  |  |  | 0.248 | 0.29 | 0.287 | 0.264 | 0.857 | 0.56 | 0.631 | 0.754 | 0.315
4 | EPLC-272H | 0.284 | 0.261 | 0.225 | 0.251 | 0.306 | 0.355 | 0.331 | 0.356 | 0.332 | 0.303 | 0.375 | 0.348 | 0.409 | 0.326 | 0.325 | 0.891 | 0.853 | 0.753 | 0.739 | 0.748
5 | NCI-H1792 |  |  |  |  |  | 0.7 | 0.608 | 0.685 | 0.671 | 0.642 | 0.252 | 0.298 | 0.325 | 0.255 | 0.252 | 0.612 | 0.987 | 0.804 | 0.979 | 1.01
6 | NCI-H2085 | 0.735 | 0.811 | 0.882 | 0.849 | 0.784 | 0.457 | 0.458 | 0.495 | 0.471 | 0.464 | 0.503 | 0.425 | 0.506 | 0.548 | 0.507 | 0.86 | 0.897 | 0.761 | 0.736 | 0.81
7 | LK-2 | 0.191 | 0.148 | 0.176 | 0.197 | 0.165 | 0.751 | 0.758 | 0.721 | 0.464 | 0.366 |  | 0.472 | 0.654 | 0.466 | 0.41 | 0.264 | 0.205 |  | 0.215 | 0.235
8 | NCI-H1395 | 0.783 | 0.721 | 0.826 | 0.717 | 0.79 | 0.61 | 0.599 | 0.675 | 0.625 | 0.599 | 0.824 | 0.58 | 0.679 | 0.54 | 0.574 |  |  |  |  | 
9 | ABC-1 | 0.163 | 0.172 | 0.172 | 0.191 | 0.167 | 0.905 | 0.527 | 0.684 | 0.468 | 0.542 | 0.947 | 0.662 | 0.954 | 0.826 | 0.706 | 0.95 | 1.23 | 1.14 | 1.04 | 0.902
10 | RERF-LC-KJ | 0.52 | 0.477 | 0.526 | 0.475 | 0.325 | 0.877 | 1.08 | 1.14 | 0.976 | 0.773 | 0.579 | 0.471 | 0.558 | 0.594 | 0.277 | 0.94 | 0.845 | 0.847 | 0.785 | 0.861
11 | NCI-H1648 | 0.531 | 0.486 | 0.595 |  | 0.542 | 0.255 | 0.24 | 0.24 | 0.282 | 0.302 |  |  |  |  |  |  |  |  |  | 
12 | NCI-H522 | 0.544 | 0.518 | 0.582 | 0.56 | 0.593 | 1.22 | 0.82 | 1.09 | 0.985 | 0.843 |  |  |  |  |  |  |  |  |  | 
13 | EBC-1 |  |  |  |  |  |  |  |  |  |  | 0.341 | 0.346 | 0.395 | 0.337 | 0.339 | 0.202 | 0.185 | 0.172 | 0.204 | 0.202
14 | NCI-H1299 |  |  |  |  |  |  |  |  |  |  | 0.86 | 0.724 | 1.06 | 0.762 | 0.536 | 0.99 | 0.969 | 0.919 | 1.08 | 1.01
15 | NCI-H1623 | 0.409 | 0.357 | 0.425 | 0.433 | 0.434 |  |  |  |  |  |  |  |  |  |  |  |  |  |  | 
16 | NCI-H1793 | 0.3 | 0.286 | 0.402 | 0.323 | 0.403 | 0.306 | 0.291 | 0.326 | 0.278 | 0.295 | 0.303 | 0.299 | 0.341 | 0.247 | 0.311 |  |  |  |  | 
17 | IA-LM |  |  |  |  |  |  |  |  |  |  | 0.115 | 0.323 |  | 0.343 | 0.339 | 0.745 | 0.849 | 0.944 | 1.19 | 0.818
18 | NCI-H596 | 0.873 | 0.858 | 0.887 | 0.754 | 0.491 |  |  |  |  |  | 0.399 | 0.348 | 0.436 | 0.348 | 0.344 | 1.02 | 0.902 | 0.886 | 0.923 | 0.948
19 | A549 |  |  |  |  |  |  |  |  |  |  | 0.42 | 0.519 | 0.602 | 0.483 | 0.489 | 0.902 | 0.899 | 0.669 | 0.751 | 0.539
20 | NCI-H1563 |  |  |  |  |  |  |  |  |  |  | 0.705 | 0.609 | 0.665 | 0.634 | 0.625 | 0.774 | 0.87 | 0.793 | 0.828 | 0.728
21 | Calu-6 |  |  |  |  |  |  |  |  |  |  | 0.876 | 0.911 | 0.978 | 0.903 | 0.785 | 0.866 | 0.822 | 0.759 | 0.832 | 0.774
22 | NCI-H2342 | 0.454 | 0.497 | 0.573 | 0.589 | 0.486 | 0.494 | 0.505 | 0.57 | 0.514 | 0.521 |  |  |  |  |  |  |  |  |  | 

Reference: the supplement of paper PMC10307832
